We go through ten compounds from ChEMBL document CHEMBL1201862, “PubChem BioAssay data set” (2004).

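Growth conditions: 96-well plates. Treatment: test compound, 48 hours, 5 concentrations. Analysis: linear interpolation between bracketing concentrations; unreached endpoints set to highest concentration. GI50 marks 50% less growth.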 Activity calls are given as the source filed them. Rule as the data show it: active = GI50 up to about 1.1 µM and inactive = higher. Where a SMILES comes first, the peptide text is derived from it. [ ]: non-standard residue; d: D form. The star is where a group is joined. Cbz = O=C(OCc1ccccc1)*; Aib = CC(C)(N)C(=O)O; OBn = c1ccc(CO*)cc1

Common to all, as to test: growth of human tumour cells (NCI), 48 h
Assay [1] concerns BT-549.
Assay [2] concerns SK-MEL-2.
In assay [3] the test system is SK-MEL-28.
Assay [4] deals with T47D.
Assay [5] has as its system RPMI-8226.
The test system of assay [6] is NCI-H226.
In assay [7] the test system is TK-10.
Assay [8] relates to HOP-62.
Assay [9] relates to UACC-257.
For assay [10], the system named is MCF7.
Assay [11] has as its system M14.
Assay [12] has as its system OVCAR-5.
Assay [13] has as its system IGROV-1.
In assay [14] the test system is HCT-116.
Assay [15] has as its system EKVX.
Assay [16] concerns ACHN.
Assay [17] concerns MDA-MB-231.
Assay [18] deals with UACC-62.
Assay [19] relates to HT-29.
For assay [20], the system named is SNB-75.

As for `Cc1ccc2c(=O)c(-c3nnc(N)s3)c[nH]c2n1`, the GI50 in [1] is > 100 µM (inactive); in [2], > 100 µM (inactive); in [3], > 100 µM (inactive); in [4], > 100 µM (inactive); in [5], > 100 µM (inactive); in assay [6], 71.4 µM (inactive). For the same compound, the GI50 is > 100 µM (inactive) in assay [7]; 18.6 µM (inactive) in assay [8]; > 100 µM (inactive) in [9]; > 100 µM (inactive) in assay [10]; > 100 µM (inactive) in assay [11]; > 100 µM (inactive) in assay [12]. For the same compound, the GI50 in assay [13], in assay [14], in [15], in assay [16], in assay [17] and in assay [18] was > 100 µM (inactive) in each case. For the same compound, in [19], the GI50 is > 100 µM (inactive).

In the case of `COc1c(C)c(OC)c(C(=O)CC(C)C)c(OC)c1C`, the GI50 in assay [1] was > 100 µM (inactive); in assay [2], > 100 µM (inactive); in assay [3] it was > 100 µM (inactive); in [4] it was 68.1 µM (inactive); in assay [5], 20.3 µM (inactive); in assay [6] it was > 100 µM (inactive). For the same compound, the GI50 in assay [7], in [8], in [9], in assay [10], in assay [11] and in assay [12] was > 100 µM (inactive) each time. Moreover, the GI50 in assay [13] was > 100 µM (inactive); in assay [14], 65.6 µM (inactive); in [15], > 100 µM (inactive); in assay [16], > 100 µM (inactive); in assay [17], > 100 µM (inactive); in assay [18], > 100 µM (inactive). For the same compound, the GI50 in [19] is 63.4 µM (inactive).

As for `COP(C)(=O)C(Cc1c[nH]c2ccccc12)NC(=O)OCc1ccccc1` (stereo unspecified), the GI50 in [1], in assay [2], in [3], in assay [4], in assay [5] and in [6] was > 100 µM (inactive) in each case. Besides, the GI50 in [7], in assay [8], in assay [9], in assay [10], in assay [11] and in [12] was > 100 µM (inactive) in each case. In addition, the GI50 in [13], in assay [14], in assay [15], in assay [16], in assay [17] and in assay [18] was > 100 µM (inactive) throughout. The GI50 in assay [19] was > 100 µM (inactive).

For `CCCCOC(=O)NC(c1ccccc1)C(O)C(=O)OC1C[C@@]2(O)C(OC(=O)c3ccccc3)C3[C@](C)(C(=O)[C@H](OC(C)=O)C(=C1C)C2(C)C)[C@@H](O)C[C@H]1OC[C@@]31OC(C)=O` (stereo partly specified), the GI50 in [1] is 0.0148 µM (active); in assay [2], 0.00773 µM (active); in assay [4], 0.175 µM (active); in assay [5] it was 0.00377 µM (active); in assay [7], 0.101 µM (active); in [8] it was 0.0239 µM (active). Moreover, the GI50 in assay [10] is 0.00248 µM (active); in [11], 0.0102 µM (active); in [12] it was 0.015 µM (active); in assay [20] it was 0.0179 µM (active); in assay [13] it was 0.00405 µM (active); in assay [14], 0.00216 µM (active). Besides, the GI50 in assay [15] was 0.0741 µM (active); in assay [16], 0.0678 µM (active); in assay [17], 0.034 µM (active); in [18], 0.0134 µM (active); in [19], 0.00228 µM (active).

For the compound `O=C(NCCC(F)(F)C(F)(F)C(F)(F)C(F)(F)F)NC1OC(CO)C(O)C(O)C1O` (stereo unspecified), the GI50 in [1], in assay [2], in assay [3], in [4], in assay [5] and in assay [7] was > 100 µM (inactive) throughout. Also, the GI50 in assay [8], in assay [9], in [10], in [11], in assay [12] and in [20] was > 100 µM (inactive) each time. The GI50 in assay [13], in [14], in assay [16], in assay [17], in assay [18] and in [19] was > 100 µM (inactive) throughout.

With `c1cncc(C(Nc2cccc3cccnc23)Nc2cccc3cccnc23)c1`, the GI50 in [1] was > 100 µM (inactive); in [2] it was > 100 µM (inactive); in [4] it was > 100 µM (inactive); in assay [5] it was 55.8 µM (inactive); in [7], > 100 µM (inactive); in assay [8], > 100 µM (inactive). In addition, the GI50 in assay [9] is > 100 µM (inactive); in assay [10], > 100 µM (inactive); in [11] it was > 100 µM (inactive); in assay [12] it was > 100 µM (inactive); in assay [20] it was 37.8 µM (inactive); in assay [13], > 100 µM (inactive). Besides, the GI50 in [14] was > 100 µM (inactive); in assay [15], 69.7 µM (inactive); in assay [16], > 100 µM (inactive); in assay [17] it was > 100 µM (inactive); in assay [18], > 100 µM (inactive); in [19] it was > 100 µM (inactive).

Consider `CC(NC(=O)C(C)(C)NC(=O)C(CC(=O)OCc1ccccc1)NC(=O)OCc1ccccc1)C(N)=O` (stereo unspecified) (Cbz-Asp(OBn)-[Aib]-Ala-NH2; configuration not given here), for which the GI50 in assay [1], in [2], in assay [3], in assay [4], in assay [5] and in [6] was > 100 µM (inactive) each time. Also, the GI50 in [7], in assay [8], in assay [9], in [10], in [11] and in assay [12] was > 100 µM (inactive) in each case. Besides, the GI50 in assay [13], in assay [14], in assay [15], in assay [16], in [17] and in [18] was > 100 µM (inactive) throughout. For the same compound, in assay [19], the GI50 is > 100 µM (inactive).

In the case of `CNC(=O)c1ccccc1-[s+]1c2ccccc2c(=O)n1C` (stereo unspecified), the GI50 in assay [1], in [2], in assay [3], in [4], in assay [5] and in [6] was > 100 µM (inactive) in each case. The GI50 in [7], in assay [8], in assay [9], in [10], in [11] and in assay [12] was > 100 µM (inactive) throughout. Moreover, the GI50 in [13], in [14], in assay [15], in assay [16], in [17] and in assay [18] was > 100 µM (inactive) throughout. In assay [19], the GI50 is > 100 µM (inactive).

In the case of `O=c1[nH]c(=O)n(C2CC(O)C(CO)O2)cc1OCCCc1ccccc1` (stereo unspecified), the GI50 in assay [1], in assay [3], in assay [4], in [5], in [6] and in assay [7] was > 100 µM (inactive) in each case. For the same compound, the GI50 in [8], in assay [9], in [10], in assay [11], in [12] and in assay [20] was > 100 µM (inactive) throughout. Moreover, the GI50 in assay [13], in assay [14], in assay [15], in [16], in [17] and in [18] was > 100 µM (inactive) throughout. For the same compound, the GI50 in assay [19] was > 100 µM (inactive).

As to `CC(=O)O[C@H]1C(=O)[C@@]2(C)[C@H]([C@H](OC(=O)c3ccc([N+](=O)[O-])cc3)[C@]3(O)C[C@H](OC(=O)[C@H](O)[C@@H](NC(=O)c4ccccc4)c4ccccc4)C(C)=C1C3(C)C)[C@]1(OC(C)=O)CO[C@@H]1C[C@@H]2O`, the GI50 in assay [1], in [3], in assay [4], in assay [5], in [6] and in assay [7] was > 25 µM (inactive) throughout. The GI50 in assay [8], in assay [9], in assay [10], in [11], in [12] and in assay [20] was > 25 µM (inactive) throughout. The GI50 in [13], in [14], in assay [15], in assay [16], in [17] and in assay [18] was > 25 µM (inactive) each time. The GI50 in [19] is > 25 µM (inactive).
